In paper PMC3742671, “Structure, Antimicrobial Activities and Mode of Interaction with Membranes of Bovel Phylloseptins from the Painted-Belly Leaf Frog, Phyllomedusa sauvagii” (PLoS ONE, 2013):
Like-named read-outs stand apart in the source and are kept apart here. Ends that are not written are not given here.

Legend:
[1] = test system: S. aureus ST1065; experiment: Permeabilization of the cytoplasmic membrane (ONPG hydrolysis); assay type: cell-based; details: ONP production at 405 nm from ONPG; compared with 10 µM dermaseptin B2 as positive control
Procedure: (§1) PLS-induced permeabilization of the cytoplasmic plasma membranes of E. coli ML-35p and S. aureus ST1065 was measured by the rate of production of o-nitrophenol (ONP) at 405 nm, following hydrolysis of o-nitrophenyl β-D-galactopyranoside (ONPG) by β-galactosidase. Dermaseptin B2 (10 µM) and PBS were used as positive and negative controls, respectively.
(§2) PLS-induced permeabilization of the cytoplasmic membranes of S. aureus ST1065 and E. coli ML-35p was analyzed by incubating the bacteria, which express β-galactosidase constitutively, with different concentrations of the peptides (S. aureus ST1065: PLS-S1, -S2, and -S4; E. coli ML-35p: PLS-S2 and -S4) and measuring the time-dependent hydrolysis of the small chromogenic substrate o-nitrophenyl-β-D-galactopyranoside (ONPG) into o-nitrophenol (ONP) by cytoplasmic β-galactosidase (Fig. 5). The three peptides permeabilized the bacterial cytoplasmic membrane with increasing severity according to the time and the peptide concentration. […] To investigate the mechanism of permeabilization, E. coli ML-35p were incubated with PLS-S2 (30 and 100 µM) and PLS-S4 (25 and 100 µM) for 60 min and β-galactosidase activity was measured after removing bacteria by centrifugation and adding ONPG to the supernatant.
(§3) Figure 5 Kinetics of the cytoplasmic membrane leakage of E. coli ML-35p and S. aureus ST1065 after incubation with different concentrations of active phylloseptins-S. The membrane leakage was determined by measuring the production of o-nitrophenol at 405 nm following hydrolysis of ONPG by the cytoplasmic bacterial β-galactosidase. Data are expressed as the mean ± S.E.M of two experiments carried out in triplicates after subtraction of the negative control values (w/o peptide) from the test values. Control panels display the kinetics obtained without peptide (negative control) and with 10 µM dermaseptin B2 (Drs B2, positive control). For E. coli ML-35p, the extracellular release of β-galactosidase was also measured as the production of o-nitrophenol at 405 nm after incubation (60 min) of E. coli cells with PLS-S2 (30 and 100 µM) and PLS-S4 (25 and 100 µM), removing of bacteria by centrifugation and adding ONPG to the supernatant. The negative (w/o peptide) and positive (10 µM Drs B2) controls are indicated for comparison. Results are expressed as the mean ± S.E.M of one representative experiment performed in triplicates.

[2] = test system: Escherichia coli; details: cited from earlier work
Excerpt: The 16–19 amino acid residue phylloseptins (PLSs) are a new emerging family of cationic antimicrobial peptides that belong to the dermaseptin superfamily, and whose members have been isolated from various genera of the Phyllomedusinae subfamily (Agalychnis, Phasmahyla, and Phyllomedusa), [10]–[16]. Like the archetypal dermaseptins (sensu stricto), these peptides seem to occur in multiple paralogous forms in each species with small differences in amino acid composition. Although only a few of these peptides were properly tested against various microorganisms, significant differences i ...

[3] = test system: S. cerevisiae; assay type: cell-based
Procedure: (§4) The effect of phylloseptins-S was evaluated against several bacterial strains and yeasts (Table 2). Bacteria were cultured in Luria-Bertani broth (LB), whereas yeasts were cultured in Yeast Peptone Dextrose medium (YPD), and minimal inhibitory concentrations (MICs) were determined by measuring the absorbance at 630 nm in 96-well microtitration plates, as described previously. Leishmanicidal activity of phylloseptins-S was also examined against promastigotes of different Leishmania species: Leishmania infantum (strain MHOM/MA/67/ITMAP-263), L. major (MHOM/SU/73/5-ASKH) and L. braziliensis (MHOM/BR/75/M2904). Culture of promastigotes and determination of the growth inhibition were performed as previously described, [22], [23].

[4] = test system: L. braziliensis (MHOM/BR/75/M2904) promastigotes; assay type: cell-based
Procedure: as §4

[5] = test system: L. major (MHOM/SU/73/5-ASKH) promastigotes; assay type: cell-based
Procedure: as §4

[6] = test system: C. parapsilosis ATCC 22019; assay type: cell-based
Procedure: as §4

[7] = test system: E. coli ML-35p; experiment: Permeabilization of the cytoplasmic membrane (ONPG hydrolysis); assay type: cell-based; details: ONP production at 405 nm from ONPG; compared with 10 µM dermaseptin B2 as positive control
Procedure: as §1, §2, §3

[8] = test system: E. coli ML-35p; experiment: Extracellular release of β-galactosidase; assay type: cell-based; details: 60 min incubation; PLS-S2 30 and 100 µM, PLS-S4 25 and 100 µM, dermaseptin B2 10 µM; ONPG added to supernatant
Procedure: as §2
Figure 5 Kinetics of the cytoplasmic membrane leakage of E. coli ML-35p and S. aureus ST1065 after incubation with different concentrations of active phylloseptins-S. The membrane leakage was determined by measuring the production of o-nitrophenol at 405 nm following hydrolysis of ONPG by the cytoplasmic bacterial β-galactosidase. […] Results are expressed as the mean ± S.E.M of one representative experiment performed in triplicates.

[9] = test system: E. coli ML-35p; experiment: Time-kill assay; assay type: cell-based; details: MIC (25 µM) and two-fold above the MIC, in PBS; two experiments in triplicates
Procedure: The time-kill kinetics of phylloseptins-S against the Gram-negative bacteria E. coli ML-35p and the Gram-positive strain S. aureus ST1065 were evaluated as previously described with a dose of peptide corresponding to the MIC and two-fold above the MIC. Two experiments were realized in triplicates.
Figure 4 Time-kill curves of PLS-S1 (S1), -S2 (S2), and -S4 (S4). […] Controls correspond to bacteria incubated in PBS without peptide. The data are the means ± S.E.M. of two experiments carried out in triplicates.

Row | Substance | permeabilization of the cytoplasmic membrane (in words) [1] | MIC [2] | MIC [3] | IC50 [4] | IC50 [5] | MIC [6] | permeabilization of the cytoplasmic membrane (in words) [7] | extracellular release of β-galactosidase (in words) [8] | killing kinetics (in words) [9] | MIC ([3]; YPD medium, absorbance at 630 nm, average of three independent experiments in triplicates)
1 | FLSLIPHIVSGVASIAKHF-NH2 [PLS-S1] | as efficient as with dermaseptin-B2 | 80 µM | 12.5 µM | 15.3 µM | 12.6 µM | 100 µM | – | – | – | –
2 | FLSLIPHIVSGVASLAKHF-NH2 [PLS-S2] | as efficient as with dermaseptin-B2 | – | – | 15 µM | 13.3 µM | 50 µM | lower efficiency | dose-dependent release of β-galactosidase | Almost similar rapid killing kinetics | 6.25 µM
3 | FLSMIPHIVSGVAALAKHL-NH2 [PLS-S4] | as efficient as with dermaseptin-B2 | – | 12.5 µM | 17.2 µM | 18 µM | 50 µM | as efficient as with dermaseptin-B2 | dose-dependent release of β-galactosidase | Almost similar rapid killing kinetics | –
